{
  "source": "patent US6924100B2",
  "about": "“Gene alteration in the gene for the Gβ3-subunit of the human G protein” (priority 1998, dated 2005)",
  "key": {"[1]": {"tested_on": "males with penile dysfunction", "experiment": "Erection score and arterial blood flow after prostaglandin E1 injection into the corpus cavernosum", "assay_type": "in vivo, human", "details": "for males with insufficient or absent erection / males with sufficient erection (scores 4 and 5): 10 micrograms, of 87 males", "method": "When erectile dysfunction is present, prostaglandin E1 is injected into the corpus cavemosum for diagnostic clarification, but also possibly to begin long-term therapy. Prostaglandin E1 activates adenylcyclase, and the subsequent formation of cAMP relaxes smooth vascular muscle cells and thus induces an increased arterial blood flow and thus erection of the penis. The degree of the erection which occurs can be quantified via a point system (score 0-5). Here the scores 4 and 5 correspond to an erection which is sufficient for penetration, while scores<4 can be considered as insufficient.\nIn 87 males with penile dysfunction, 10 micrograms of prostaglandin E1 were administered with quantification of the erection score. Here the genotype distribution was as follows: Sufficient erection (scores 4 and 5): TT=3; TC=15; CC=16; (frequency of GNB3 825T allele: 30.9%). Insufficient or absent erection: TT=3; TC=16; CC=34; (frequency of the GNB3 825T allele: 20.8%)."}, "[2]": {"molecular_target": "T1, m2-muscarinergic receptor (Homo sapiens, UniProt P08172)", "T1 sequence (P08172 1-466)": "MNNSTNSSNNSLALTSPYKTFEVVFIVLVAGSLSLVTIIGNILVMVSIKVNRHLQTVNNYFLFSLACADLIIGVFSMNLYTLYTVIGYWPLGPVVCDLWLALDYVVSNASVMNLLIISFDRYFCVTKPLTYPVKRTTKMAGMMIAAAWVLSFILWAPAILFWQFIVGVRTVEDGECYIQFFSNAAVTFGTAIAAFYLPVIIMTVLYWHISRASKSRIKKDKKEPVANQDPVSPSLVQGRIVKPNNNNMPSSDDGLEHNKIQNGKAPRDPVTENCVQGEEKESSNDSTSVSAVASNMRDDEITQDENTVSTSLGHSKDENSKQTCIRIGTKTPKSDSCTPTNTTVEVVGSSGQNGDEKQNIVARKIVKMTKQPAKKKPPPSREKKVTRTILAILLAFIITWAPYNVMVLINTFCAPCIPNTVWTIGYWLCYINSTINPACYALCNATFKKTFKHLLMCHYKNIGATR", "experiment": "G protein stimulation by carbachol in Sf9 cells expressing m2-muscarinergic receptor, Galphai3, Ggamma5 and Gβ3 or Gβ3s", "assay_type": "cell-based", "details": "in the presence of Gβ3 (so in the source), FIG. 2", "excerpt": "Here the m2-muscarinergic receptor is expressed together with the G protein subunits Galphai3 and Ggamma5 and either Gβ3 or Gbeta3-s in the Sf9 system."}, "[3]": {"tested_on": "neutrophilic granulocytes", "experiment": "fMLP-stimulated chemotaxis of neutrophilic granulocytes", "assay_type": "cell-based, human", "details": "granulocytes of carriers of the GNB3-825T allele, FIG. 5", "excerpt": "It is therefore used as a test system for measurement of chemotactic reactions of cells which is well known to one skilled in the art. The fMLP receptor, as is known, activates the pertussis toxin-sensitive G proteins. The statement that granulocytes of carriers of the GNB3-825T allele show intensified fMLP-stimulated chemotaxis is in agreement with the fact that chemotaxis of betagamma subunits is mediated."}, "coronary vessels": {"tested_on": "coronary vessels", "experiment": "Coronary blood flow change after intracoronary BHT 933", "assay_type": "in vivo, human", "details": "carriers of the GNB3-825T allele, with or without CHD, FIG. 8", "excerpt": "An alpha2 adrenergic agonist (BHT 933) was applied intracoronary in the probands; it leads to contraction of coronary vessels. This effect was quantified via the flow change through these sections of the vessels. […] This means that in carriers of the GNB3-825T allele the intensification of the action of these pharmaceuticals can be predicted."}, "[4]": {"tested_on": "beta-adrenergic receptors", "experiment": "Cardiac output after intravenous beta-adrenoceptor blocker", "assay_type": "in vivo, human", "details": "average"}, "G protein alpha subunits": {"tested_on": "G protein alpha subunits", "experiment": "35S-GTPgammaS binding to permeabilized Sf9 cells (Galphai2, Ggamma12, m2 receptor) after carbachol", "assay_type": "cell-based, human", "details": "carbachol 100 microM, versus no beta subunit, FIG. 15", "excerpt": "First of all, it was studied whether G protein heterotrimers which contain Gβ3s-2 are functionally active. As described earlier, the Sf9 insect cell system was used for this purpose (Siffert, W., Rosskopf, D., Siffert, G., Busch, S., Moritz, A., Erbel, R., Sharma, A. M., Ritz, E.; Wichmann, H. E., Jakobs, K. H., and Horsthemke, B. Association of a human G protein β3 subunit variant with hypertension. Nat. Genet. 18(1): 45-48, 1998). The cells were transfected with Galphai2, Ggamma12 and the m2-muscarinergic acetylcholine receptor. The bonding of 35S-GTPgammaS to permeabilized cells was quantified after stimulation with carbachol (100 microM). Here the specific incorporation of 35S-GTPgammaS is a measure of the activation of G protein alpha subunits. […] Thus it is shown at the same time that Gβ3s-2 in spite of the deletion of one propeller blade is functionally active and even leads to intensified activation of G proteins. […] Galphai2, Galphai3, G-1, and G-2 are not mutated. Circ. Res. 79:974-983, 1996. Siffert, W., Rosskopf, D., Moritz, A., Wieland, T., Kaldenberg-Stasch, S., Kettler, N., Hartung, K., Bechmann, S., and Jakobs, K. H. Enhanced G protein activation in immortalized lymphoblasts from patients with essential hypertension. J. Clin. Invest. 96:759-766, 1995. Wirchow, S., Ansorge, N., Ruebben, H., Wiffert, G., and Siffert, W. Enhanced fMLP-stimulated chemotaxis in human neutrophils from individuals carrying out the G protein beta3 subunit 825T-allele. FEBS Lett. 436(2): 155-158, 1998)."}, "G protein alpha-subunits": {"tested_on": "G protein alpha-subunits", "experiment": "[35S]GTPgammaS incorporation after Mas-7 stimulation, COS-7 transfection system", "assay_type": "cell-based, human", "details": "COS-7 cells, FIG. 1", "excerpt": "The subject matter of this invention is based on the finding that the Gβ3s subunit leads to increased activation capacity of G proteins. The increased activation capacity of G proteins was detected via transfection of the corresponding cDNAs and the expression of Gβ3 and Gβ3s in the COS-7 transfection system which is well known to one skilled in the art. […] To quantify the activation capacity of G proteins, here the incorporation of radioactively tagged [35S]GTPgammaS into G protein alpha-subunits after stimulation with the peptide mastoparan-7 (Mas-7) was measured."}, "[5]": {"tested_on": "phospholipase Cβ3 (PLCbeta3)", "experiment": "Inositol phosphate formation in COS-7 cells transfected with PLCβ3, Ggamma12 and Gβ subunits", "assay_type": "cell-based", "details": "betagamma dimers with Ggamma12, FIG. 16", "excerpt": "It is generally known that betagamma subunits of heterotrimeric G proteins can stimulate different isoforms of the phospholipase Cbeta. This enzyme splits phospholipids, for example phosphatdylinositol-4,5-bisphosphate into the “second messenger” molecules inositol-1,4,5 triphosphate (IP3) and 1,2-diacylglycerol (DAG), IP3 causes release of calcium ions from intracellular reservoirs, while DAG activates different isoforms of the protein kinase C. Activation of phospholipase C is thus an important step in cell activation. It was examined whether betagamma subunits which contain Gβ3s-2 can activate the phospholipase Cβ3 (PLCbeta3). To do this the COS-7 cell system was used which is often used in the generally accessible literature for transient transfection of proteins. These cells were transfected with the PLCβ3, Ggamma12 and different Gβ subunits. The cells were pretreated with radioactively tagged [3H] inositol. The formation of inositol phosphates (IP) was quantified using standard methods, the amount of the 1P formed constituting a measure of the activation of the PLC. As is shown in FIG. 16, betagamma dimers which contain Gβ3, Gβ3s, or Gβ3s-2 can activate PLCβ33. Likewise, activation of PLCβ3 after transfection of Gβ1 is shown for comparison."}},
  "data": [
    {"molecule": "CCCCC[C@H](O)/C=C/[C@H]1[C@H](O)CC(=O)[C@@H]1CCCCCCC(=O)O", "note": "[prostaglandin E1]", "values": [
      {"measurement": "males with insufficient or absent erection", "setting": "[1]; genotype CC", "value": 34},
      {"measurement": "males with sufficient erection (scores 4 and 5)", "setting": "[1]; genotype CC", "value": 16},
      {"measurement": "males with insufficient or absent erection", "setting": "[1]; genotype TC", "value": 16},
      {"measurement": "males with sufficient erection (scores 4 and 5)", "setting": "[1]; genotype TC", "value": 15},
      {"measurement": "males with insufficient or absent erection", "setting": "[1]; genotype TT", "value": 3},
      {"measurement": "males with sufficient erection (scores 4 and 5)", "setting": "[1]; genotype TT", "value": 3},
      {"measurement": "increase of the arterial blood flow (doppler sonography)", "setting": "[1]; after injection, homozygotic C825 allele carriers", "value": "reduced increase of the arterial blood flow"}
    ]},
    {"molecule": "C[N+](C)(C)CCOC(N)=O", "note": "[carbachol]", "values": [
      {"measurement": "potency and efficiency of the agonist for stimulation of G proteins", "setting": "[2]", "value": "increased potency and increased efficiency"}
    ]},
    {"molecule": "fMLP", "values": [
      {"measurement": "chemotaxis", "setting": "[3]", "value": "increased chemotaxis"}
    ]},
    {"molecule": "CCN1CCc2nc(N)oc2CC1", "note": "[BHT 933]", "values": [
      {"measurement": "reduction of coronary blood flow", "setting": "coronary vessels", "value": "intensified reduction of coronary blood flow"}
    ]},
    {"molecule": "CC(C)NCC(O)COc1cccc2ccccc12", "note": "(stereo not shown) [propanolol]", "values": [
      {"measurement": "decrease of cardiac output", "setting": "[4]; homozygotic C825 carriers", "value": 3, "unit": "mL"},
      {"measurement": "decrease of cardiac output", "setting": "[4]; homozygotic and heterozygotic 828T (so in the source) allele carriers", "value": 12, "unit": "mL"}
    ]},
    {"molecule": "Gβ3s: alternative splice product of human GNB3 with loss of 41 amino acids (protein, listed as Homo sapiens) MGEMEQLRQEAEQLKKQIADARKACADVTLAELVSGLEVVGRVQMRTRRTLRGHLAKIYAMHWATDSKLLVSASQDGKLIVWDSYTTNKVHAIPLRSSWVMTCAYAPSGNFVACGGLDNMCSIYNLKSREGNVKVSRELSAHTGYLSCCRFLDDNNIVTSSGDTTCALWDIETGQQKTVFVGHTGDCMSLAVSPDFNLFISGACDASAKLWDVREGTCRQTFTGQESDINAICFFSLSGRLLFAGYDDFNCNVWDSMKSERVGILSGHDNRVSCLGVTADGMAVATGSWDSFLKIWN", "values": [
      {"measurement": "G protein activation (specific 35S-GTPgammaS incorporation)", "setting": "G protein alpha subunits", "value": "more potent than Gβ3"},
      {"measurement": "activation capacity of G proteins ([35S]GTPgammaS incorporation)", "setting": "G protein alpha-subunits", "value": "clearly increased compared to Gβ3"},
      {"measurement": "activation of PLCβ3 (inositol phosphate formation)", "setting": "[5]", "value": "can activate"}
    ]},
    {"molecule": "Gβ3s-2: new splice variant of the Gβ3 subunit of human G protein, deletion of 43 amino acids, SEQ ID NO:4 (protein, listed as Homo sapiens) MGEMEQLRQEAEQLKKQIADARKACADVTLAELVSGLEVVGRVQMRTRRTLRGHLAKIYAMHWATDSKLLVSASQDGKLIVWDSYTTNKVHAIPLRSSWVMTCAYAPSGNFVACGGLDNMCSIYNLKSREGNVKVSRELSAHTGYLSCCRFLDDNNIVTSSGDTTCALWDIETGQQKTVFVGHTGDCMSLAVSPDFNLFISGACDASAKLWDVREGTCRQTFTGQESDINAICFFSLSGRLLFAGYDDFNCNVWDSMKSERVGILSGHDNRVSCLGVTADGMAVATGSWDSFLKIWN", "values": [
      {"measurement": "G protein activation (specific 35S-GTPgammaS incorporation)", "setting": "G protein alpha subunits", "value": "strongest potentiation"},
      {"measurement": "activation of PLCβ3 (inositol phosphate formation)", "setting": "[5]", "value": "can activate"}
    ]},
    {"molecule": "Gβ3: Gβ3-subunit of the human G protein (protein, UniProt P16520 1-340, looked up) Guanine nucleotide-binding …: MGEMEQLRQEAEQLKKQIADARKACADVTLAELVSGLEVVGRVQMRTRRTLRGHLAKIYAMHWATDSKLLVSASQDGKLIVWDSYTTNKVHAIPLRSSWVMTCAYAPSGNFVACGGLDNMCSIYNLKSREGNVKVSRELSAHTGYLSCCRFLDDNNIVTSSGDTTCALWDIETGQQKTVFVGHTGDCMSLAVSPDFNLFISGACDASAKLWDVREGTCRQTFTGHESDINAICFFPNGEAICTGSDDASCRLFDLRADQELICFSHESIICGITSVAFSLSGRLLFAGYDDFNCNVWDSMKSERVGILSGHDNRVSCLGVTADGMAVATGSWDSFLKIWN", "values": [
      {"measurement": "G protein activation (specific 35S-GTPgammaS incorporation)", "setting": "G protein alpha subunits", "value": "clearly intensified"},
      {"measurement": "activation of PLCβ3 (inositol phosphate formation)", "setting": "[5]", "value": "can activate"}
    ]}
  ]
}
